In brackets after ≈: the same amount, converted by molar mass.
Assay: solubility of islatravir in PBS
Assay type: physicochemical
Conditions: phosphate buffered saline (PBS), aqueous buffer, 37° C.

solubility: 1350 µg/mL (≈ 4.6 mM)
SMILES: C#C[C@]1(CO)O[C@@H](n2cnc3c(N)nc(F)nc32)C[C@@H]1O [islatravir, 4′-ethynyl-2-fluoro-2′-deoxyadenosine]
